Key:
Assay in all cases: relative viability (nuclei count vs DMSO), 5 days (fraction); higher = more cells survive
[1] = compound: Cc1ccc2nc(NCCN)c3ncc(C)n3c2c1 + NC(=O)Nc1cc(-c2cccc(F)c2)sc1C(=O)N[C@H]1CCCNC1 [AZD7762] (partner 0.2 µM)
Method in brief: (§1)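 A single step with final 0.05% Triton X-100, 1% formaldehyde and 1 ug/ml Hoechst fixed the cells and stained nuclei 5 days after treatment. Lung cancer cell lines in 1536-well plates had been treated by pin tool the day after seeding with one drug alone or a fixed anchor-drug dose plus five library-drug doses (not always all listed) in √10 steps, and nuclei were counted on 4× images. Relative viability is the ratio of nuclei in treated wells to nuclei in vehicle wells, taken as the median of duplicate plates.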

[2] = compound: Cc1ccc2nc(NCCN)c3ncc(C)n3c2c1 + CS(=O)(=O)N1CCN(Cc2cc3nc(-c4cccc5[nH]ncc45)nc(N4CCOCC4)c3s2)CC1 [Pictilisib] (partner 1 µM)
Method in brief: as §1

Salubrinal + Phenformin = compound: O=C(/C=C/c1ccccc1)NC(NC(=S)Nc1cccc2cccnc12)C(Cl)(Cl)Cl [Salubrinal] + N=C(N)NC(=N)NCCc1ccccc1 [Phenformin] (partner 250 µM)
Method in brief: as §1

[3] = compound: Cc1ccc2nc(NCCN)c3ncc(C)n3c2c1 + CC(=O)Nc1cccc(-n2c(=O)n(C3CC3)c(=O)c3c(Nc4ccc(I)cc4F)n(C)c(=O)c(C)c32)c1 [Trametinib] (partner 0.02 µM)
Method in brief: as §1

| Cell Line | relative viability ([1]; first compound 0.04 µM) | relative viability ([1]; first compound 0.1265 µM) | relative viability ([1]; first compound 0.4 µM) | relative viability ([1]; first compound 1.265 µM) | relative viability ([1]; first compound 4 µM) | relative viability ([2]; first compound 0.04 µM) | relative viability ([2]; first compound 0.1265 µM) | relative viability ([2]; first compound 0.4 µM) | relative viability ([2]; first compound 1.265 µM) | relative viability ([2]; first compound 4 µM) | relative viability (Salubrinal + Phenformin; first compound 0.08 µM) | relative viability (Salubrinal + Phenformin; first compound 0.253 µM) | relative viability (Salubrinal + Phenformin; first compound 0.8 µM) | relative viability (Salubrinal + Phenformin; first compound 2.53 µM) | relative viability (Salubrinal + Phenformin; first compound 8 µM) | relative viability ([3]; first compound 0.04 µM) | relative viability ([3]; first compound 0.1265 µM) | relative viability ([3]; first compound 0.4 µM) | relative viability ([3]; first compound 1.265 µM) | relative viability ([3]; first compound 4 µM) |
| --- | --- | --- | --- | --- | --- | --- | --- | --- | --- | --- | --- | --- | --- | --- | --- | --- | --- | --- | --- | --- |
| NCI-H1975 | 0.791 | 0.73 | 0.672 | 0.66 | 0.595 | 0.317 | 0.281 | 0.245 | 0.261 | 0.242 | 0.465 | 0.359 | 0.434 | 0.427 | 0.375 | 0.329 | 0.376 | 0.369 | 0.329 | 0.321 |
| CAL-12T | 0.657 | 0.649 | 0.557 | 0.576 | 0.481 | 0.521 | 0.517 | 0.389 | 0.364 | 0.232 | 0.627 | 0.485 | 0.613 | 0.578 | 0.438 | 0.352 | 0.323 | 0.361 | 0.357 | 0.271 |
| NCI-H2342 | 0.548 | 0.655 | 0.479 | 0.452 | 0.479 | – | – | – | – | – | 0.497 | 0.564 | 0.618 | 0.635 | 0.572 | 0.822 | 0.805 | 0.821 | 0.917 | 0.849 |
| HCC-44 | 0.988 | 1.05 | 0.933 | 0.992 | 1.02 | 0.692 | 0.777 | 0.595 | 0.535 | 0.565 | 0.193 | 0.212 | 0.391 | 0.364 | 0.182 | 1.11 | 0.971 | 1.03 | 1.1 | 1.01 |
| EKVX | 0.723 | 0.704 | 0.693 | 0.682 | 0.525 | 0.406 | 0.356 | 0.416 | 0.329 | 0.338 | 0.228 | 0.23 | 0.236 | 0.203 | 0.228 | 0.383 | 0.365 | 0.269 | 0.261 | 0.291 |
| NCI-H1651 | 0.536 | 0.511 | 0.409 | 0.46 | 0.445 | 0.512 | 0.477 | 0.593 | 0.589 | 0.506 | 0.311 | 0.237 | 0.345 | 0.296 | 0.267 | 0.842 | 0.666 | 0.844 | 0.865 | 0.829 |
| NCI-H1648 | 0.687 | 0.682 | 0.587 | 0.709 | 0.737 | – | – | – | – | – | – | – | – | – | – | 0.434 | 0.433 | 0.434 | 0.419 | 0.358 |
| NCI-H1703 | 0.131 | 0.114 | – | 0.111 | 0.132 | 0.299 | 0.248 | 0.257 | 0.321 | 0.233 | – | – | – | – | – | – | – | – | – | – |
| Calu-6 | – | – | – | – | – | 1 | 0.781 | 0.989 | 0.836 | 0.475 | – | – | – | – | – | – | – | – | – | – |
| EBC-1 | – | – | – | – | – | 0.4 | 0.35 | 0.336 | 0.246 | 0.263 | – | – | – | – | – | – | – | – | – | – |
| SW 1573 | – | – | – | – | – | 0.449 | 0.577 | 0.418 | 0.507 | 0.502 | 0.388 | 0.327 | 0.389 | 0.332 | 0.299 | 0.584 | 0.6 | 0.602 | 0.612 | 0.306 |
| A-427 | 0.816 | 0.748 | 0.748 | 0.721 | 0.723 | 0.743 | 0.653 | 0.596 | 0.691 | 0.702 | 0.326 | 0.336 | 0.382 | 0.292 | 0.28 | 0.725 | 0.731 | 0.705 | 0.695 | 0.775 |
| NCI-H2347 | 0.719 | 0.733 | 0.687 | 0.794 | 0.636 | 0.762 | 0.673 | 0.59 | 0.645 | 0.557 | 0.321 | 0.35 | 0.399 | 0.363 | 0.43 | 0.269 | 0.289 | 0.264 | 0.29 | 0.3 |
| NCI-H1355 | 0.75 | 0.685 | 0.72 | 0.644 | 0.763 | 0.46 | 0.449 | 0.406 | 0.392 | 0.386 | 0.424 | 0.426 | 0.475 | 0.456 | 0.44 | 0.44 | 0.448 | 0.392 | 0.39 | 0.387 |
| NCI-H1944 | 0.48 | 0.64 | 0.456 | 0.351 | 0.498 | 0.331 | 0.37 | 0.319 | 0.363 | 0.328 | 0.198 | 0.191 | 0.214 | 0.185 | 0.178 | 0.432 | 0.476 | 0.401 | 0.381 | 0.427 |
| PC-3 [JPC-3] | 0.883 | 0.623 | 0.829 | 0.728 | 0.591 | 0.758 | 0.752 | 0.731 | 0.725 | 0.7 | 0.471 | 0.448 | 0.529 | 0.475 | 0.467 | 0.656 | 0.738 | 0.62 | 0.601 | 0.529 |
| NCI-H2228 | – | – | – | – | – | 0.464 | 0.592 | 0.417 | 0.272 | 0.369 | 0.319 | 0.265 | 0.441 | 0.315 | 0.247 | 0.549 | 0.501 | 0.522 | 0.519 | 0.424 |
| HOP-62 | 0.849 | 0.638 | 0.528 | 0.543 | 0.595 | 0.829 | 0.567 | 0.492 | 0.589 | 0.71 | 0.85 | 0.491 | 0.799 | 0.702 | 0.53 | 0.41 | 0.374 | 0.376 | 0.387 | 0.328 |
| HARA | 0.401 | 0.33 | 0.256 | 0.274 | 0.337 | 0.524 | 0.362 | 0.436 | 0.39 | 0.418 | 0.607 | 0.484 | 0.483 | 0.445 | 0.47 | 0.637 | 0.648 | 0.41 | 0.723 | 0.761 |

From the supplement of paper PMC10307832
